For test [1], the system named is primary CD4+ and CD8+ T cells (PBMCs). Kind of test: T-cell activation (TCA) assay, PBMCs with CHO/TCRAct/PD-L1 cells, flow cytometry. It counts as cell-based, human. The settings on record: 48 h; compounds 0.1, 0.5, 2.5 μM; mAbs 5 μg/mL. How it is done:
A standard ICB assay relies on artificial Jurkat-ECs, which are surrogates of T-cells. To verify the potential of the compounds to reactivate the PD-L1-blocked primary T cells, a modified assay termed T-cell activation (TCA) was carried out.[32] In this assay, human primary peripheral blood mononuclear cells (PBMCs) are allowed to make contact with CHO/TCRAct/PD-L1 cells alone or in the presence of PD-1/PD-L1 blockers, and the activation of CD4^+ and CD8^+ T cell is monitored by flow cytometry.
Anticoagulant citrate dextrose-A-treated blood from healthy donors was purchased from the Regional Center of Blood Donation and Blood Therapy in Krakow, Poland. PBMCs were isolated from whole blood by density gradient centrifugation using Pancoll human separating solution (PAN-Biotech GmbH, Aidenbach, Germany). The separated cells were washed and resuspended in RPMI 1640 medium (Biowest) containing 10% FBS (Biowest). PBMCs were added at an amount of 3 × 10^5 to CHO, CHO/TCRAct, or CHO/TCRAct/PD-L1 cells preseeded on 24-well plates in the presence of either anti-PD-L1 mAbs (at the final concentration 5 μg/mL): durvalumab (Selleckchem), atezolizumab (Selleckchem), or avelumab (MedChemExpress) or tested compounds at the concentrations 0.1, 0.5, and 2.5 μM. Untreated cells were used as controls for antibody treatment, while DMSO-treated cells [0.1% (v/v)] were used as controls for compound treatment. The cells were incubated for 48 h (37 °C, 5% CO2) and then detached from the plates with TrypLe Select Enzyme (Thermo Fisher). PBMCs were stained for 20 min at room temperature with the antibodies: anti-CD4-FITC, anti-CD8-BV510, anti-CD69-APC, anti-CD25-PE, anti-HLA-DR-PerCP, and anti-PD1-PECy7 (Becton Dickinson Biosciences, BD). Following two washing steps, the cells were analyzed with a FACSCanto II cytometer. Data analysis was carried out with FlowJo software, followed by statistical significance calculations done with Origin Pro 2020 software (OriginLab). Statistical significance was analyzed with one-way analysis of variance (ANOVA), followed by the Fisher’s posthoc test: *p < 0.05, **p < 0.01, […].

The next test concerns the target PD-1/PD-L1 complex (Homo sapiens, UniProt Q9NZQ7). Kind of test: HTRF assay of PD-1/PD-L1 complex dissociation (CisBio).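 For all read-outs here: human PD-L1 at 5 nM with human PD-1 at 50 nM, TR-FRET signal read after 2 h at room temperature, background removed via negative control and scaled to positive control.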 The settings on record: for remaining activity at 0.005 µM: 2 h.
Test [2] has as its system Jurkat-ECs alone or with CHO wt or CHO/TCRAct cells. Kind of test: ICB assay control where PD-L1 is absent. It counts as cell-based. Particulars: 6 h; Figure S1. How it is done:
The functional assay of the blockade of PD-1/PD-L1 interaction in vitro (PD-1/PD-L1 Blockade Bioassay, Promega) was performed according to the manufacturer’s protocol. CHO/TCRAct/PD-L1 cells or CHO/TCRAct or CHO-K1 cells were seeded on 96-well white plates at the density of 10,000 cells/well and the next day overlaid with Jurkat T cells (20,000 cells/well) in the presence of increasing concentrations of the compounds with DMSO only as a control (the concentration of DMSO was kept constant at 0.1%) or atezolizumab, as a positive control, anti-PD-L1 monoclonal antibody (Selleckchem). The 2.5-fold dilutions of atezolizumab were prepared in the assay buffer (RPMI 1640 + 1% FBS) on the day of the assay. Activation of the Jurkat T cells, reflected by luciferase activity, was monitored by luminescence measurements after 6 h of incubation (37 °C, 5% CO2), and 20 min of additional incubation with the Bio-Glo assay reagent (Promega) at room temperature. The luminescence was read on a Spark microplate reader (Tecan). The data are presented as fold induction of the luminescence signal relative to either untreated (for atezolizumab) or DMSO-treated (for compound) cells. Data points represent mean ± SD values from three to five independent experiments. Half-maximal effective concentrations (EC50 values) were calculated from the Hill curve fitting to the experimental data using Origin Pro 2020 software (OriginLab). […]
of the Immune Checkpoint Blockade (ICB) assay, where 8h, 8i, and 8j were used to restore the activation of effector Jurkat-ECs. Jurkat-ECs were either kept alone, or contacted with one of the following cell lines: wild type CHO K1 cells (CHO wt), CHO K1 cells expressing TCR Activator (CHO/TCRAct), or CHO K1 cells expressing TCR Activator and […]. The cells were incubated with the indicated concentrations of the compounds for 6 hours and luminescence was measured as an indicator of TCR-dependent activation of Jurkat-ECs. The graphs present fold induction of the luminescence signal relative to DMSO-treated cells. […]

SMILES strings stand for the structures. Like-named read-outs stand apart in the source and are kept apart here.

PD-1/PD-L1 complex, sequence (Q9NZQ7 19-238 limits assumed, one chain of several): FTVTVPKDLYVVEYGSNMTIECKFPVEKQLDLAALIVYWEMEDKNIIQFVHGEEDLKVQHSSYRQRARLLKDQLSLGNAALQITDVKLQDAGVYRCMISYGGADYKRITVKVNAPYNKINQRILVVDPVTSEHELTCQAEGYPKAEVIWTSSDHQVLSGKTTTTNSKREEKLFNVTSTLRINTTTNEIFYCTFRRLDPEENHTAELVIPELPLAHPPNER
Method for PD-1/PD-L1 complex: HTRF was performed using the certified CisBio assay according to the manufacturer’s guidelines. The experiments were performed at 5 nM h-PD-L1 and 50 nM hPD-1 in the final formulation at 20 μL final volume in the well. To determine the half-maximal inhibitory concentration (IC50) of tested compounds, measurements were performed on two individual dilution series, unless states otherwise. After mixing all components according to the CisBio protocol, the plate was left for 2 h incubation at room temperature, followed by time-resolved fluorescence energy transfer (TR-FRET) measurement on Tecan Spark 20M. Collected data were background-subtracted on the negative control, normalized on the positive control, averaged, and fitted with normalized Hill’s equation to determine the IC50 value using Mathematica 12.

Regarding `COc1cc(-c2cccc(-c3ccc4c(c3)OCCO4)c2Cl)ccc1CNC(CO)(CO)CO` [8j, 2-(((3′-(Benzo-1,4-dioxan-6-yl)-2′-chloro-3-methoxy-[1,1′-biphenyl]-4-yl)methyl)amino)-2-(hydroxymethyl)propane-1,3-diol], in test [1], the “numbers of PD-1-positive T cells” value is recorded as “significant increase”; the “numbers of activated, CD25-positive and HLA-DR-positive T-cells” value is on record as “increased”. At PD-1/PD-L1 complex (read-out: % of undissociated complex at 5 nM), the remaining activity at 0.005 µM was 0%. For the same molecule, the remaining activity at 0.005 µM at PD-1/PD-L1 complex (read-out: HTRF % of the undissociated complex at 5 nM) is 0%. This molecule also had an IC50 against PD-1/PD-L1 complex (HTRF, Table 4, <1.00 = limit of quantification reached) of under 1 nM. In test [2], the “activation of Jurkat-ECs where PD-L1 is absent” value is given as “requires the presence of PD-L1”.

The values above are taken from PMC8365601, “Terphenyl-Based Small-Molecule Inhibitors of Programmed Cell Death-1/Programmed Death-Ligand 1 Protein–Protein Interaction” (Journal of Medicinal Chemistry, 2021).
